The values that follow come from patent US9676714B2, “Sulfonylindole derivatives and method for preparing the same” (Daewoong Pharmaceutical Co., Ltd., priority 2013, dated 2017).

Counter-ions that a name gives are not always drawn.

The experiment has as its target T1, proton pump (H+/K+-ATPase) (Sus scrofa, UniProt P19156).
T1 construct: Gastric vesicles were prepared from hog stomach via centrifugal separation; from tissue; host or cells: hog stomach (gastric vesicles, method of Rabon et al. 1988)
Briefly: Measurement of inhibitory effects on proton pump (H+/K+-ATPase) activities. Format: biochemical. The following applies: hog gastric vesicles, K+-specific H+/K+-ATPase activity, Tris-HCl buffer pH 7.4, 37° C. for 40 minutes, malachite green Pi readout. The procedure:
1) Preparation of Gastric Vesicles
Gastric vesicles were prepared from hog stomach via centrifugal separation (Edd C. Rabon et al., Preparation of Gastric H^+,K^+-ATPase, Methods in enzymology, vol. 157 Academic Press Inc., (1988), pp. 649-654). The protein contents of the thus prepared gastric vesicles were quantitated by Bicinchoninic Acid (BCA) kit.
2) Measurement of Inhibitory Effects on Proton Pump (H^+/K^+-ATPase) Activities
The inhibitory effects of the compounds of the present invention against proton pump activities were measured using a 96-well plate. In this assay, the K^+-specific H^+/K^+-ATPase activities were calculated based on the difference between the H^+/K^+-ATPase activity in the presence of K^+ and that in the absence of K. In the 96-well plate, 0.5% dimethyl sulfoxide (DMSO) in buffer was added to the negative and positive control groups, and the diluted compounds of the present invention were added to the test groups. All assays were performed in a reaction volume of 100 μl at room temperature. The reaction buffer solution (60 mmol/l Tris-HCl buffer, pH 7.4) including the hog gastric vesicles was added with DMSO and the compounds at various concentrations, and then further added with 10 μl of 10 mmol/1 adenosine triphosphate Tris buffer solution (60 mmol/l Tris-HCl buffer, pH 7.4) to initiate an enzyme reaction. […] The amount of monophosphate (Pi) in the reaction was measured at 570 nm using a micro plate reader (FLUOstar Omega, BMG LABTECH). The inhibition rates (%) were determined from the activity values of control groups and those of test compounds at various concentrations, and the […] of the test compounds were calculated based on the respective inhibition value (%) using the Logistic 4-parameter function of Sigmaplot 8.0 program.

T1 sequence (P19156 whole entry): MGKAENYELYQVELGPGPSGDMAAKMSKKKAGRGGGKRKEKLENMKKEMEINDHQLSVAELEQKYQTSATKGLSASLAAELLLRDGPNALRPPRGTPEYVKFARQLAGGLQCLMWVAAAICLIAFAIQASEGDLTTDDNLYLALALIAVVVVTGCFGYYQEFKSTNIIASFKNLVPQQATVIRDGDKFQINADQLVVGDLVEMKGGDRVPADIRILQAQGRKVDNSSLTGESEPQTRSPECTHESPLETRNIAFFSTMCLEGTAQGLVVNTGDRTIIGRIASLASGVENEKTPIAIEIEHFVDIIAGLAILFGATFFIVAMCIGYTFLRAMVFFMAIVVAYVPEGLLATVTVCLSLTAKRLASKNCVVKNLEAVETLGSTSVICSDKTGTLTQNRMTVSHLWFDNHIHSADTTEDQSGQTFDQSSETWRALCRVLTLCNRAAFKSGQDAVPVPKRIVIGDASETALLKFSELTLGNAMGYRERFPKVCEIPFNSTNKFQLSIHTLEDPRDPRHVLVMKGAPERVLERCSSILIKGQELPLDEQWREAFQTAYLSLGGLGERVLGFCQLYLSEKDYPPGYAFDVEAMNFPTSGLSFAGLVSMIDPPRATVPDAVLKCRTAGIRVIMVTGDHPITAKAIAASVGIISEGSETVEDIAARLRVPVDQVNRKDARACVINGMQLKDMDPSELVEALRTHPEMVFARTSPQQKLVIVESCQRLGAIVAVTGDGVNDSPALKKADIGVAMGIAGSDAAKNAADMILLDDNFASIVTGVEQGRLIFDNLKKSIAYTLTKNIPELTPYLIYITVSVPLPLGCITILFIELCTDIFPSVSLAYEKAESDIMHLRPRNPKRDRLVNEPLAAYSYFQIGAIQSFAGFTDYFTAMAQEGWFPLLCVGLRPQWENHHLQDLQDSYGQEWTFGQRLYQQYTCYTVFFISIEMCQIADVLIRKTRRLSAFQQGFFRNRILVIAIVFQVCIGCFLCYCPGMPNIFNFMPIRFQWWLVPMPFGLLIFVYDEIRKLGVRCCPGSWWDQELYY
T1 sequence (P18434 whole entry partner): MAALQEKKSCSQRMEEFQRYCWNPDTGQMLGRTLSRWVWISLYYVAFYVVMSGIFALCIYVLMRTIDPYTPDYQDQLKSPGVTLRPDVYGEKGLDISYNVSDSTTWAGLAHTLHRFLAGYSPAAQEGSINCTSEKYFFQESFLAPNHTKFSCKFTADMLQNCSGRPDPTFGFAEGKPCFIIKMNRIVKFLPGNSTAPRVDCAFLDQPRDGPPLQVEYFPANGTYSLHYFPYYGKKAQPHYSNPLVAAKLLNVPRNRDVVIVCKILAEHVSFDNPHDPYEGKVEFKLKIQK

As a reminder, the IC50 is the concentration needed to halve the response being measured. Take `CNCc1cn(S(=O)(=O)c2cccnc2)c2cc(Nc3ccccc3)ccc12` [Example 2, 3-((methylamino)methyl)-N-phenyl-1-(pyridin-3-ylsulfonyl)-1H-indol-6-amine hydrochloride]: the IC50 was 1150 nM. Turning to `CNCc1cn(S(=O)(=O)c2cccnc2)c2cc(Nc3ccccc3F)ccc12` [Example 3, N-(2-fluorophenyl)-3-((methylamino)methyl)-1-(pyridin-3-ylsulfonyl)-1H-indol-6-amine hydrochloride], the IC50 came out at 250 nM. `CNCc1cn(S(=O)(=O)c2cccnc2)c2cc(Nc3ccccc3Cl)ccc12` [Example 4, N-(2-chlorophenyl)-3-((methylamino)methyl)-1-(pyridin-3-ylsulfonyl)-1H-indol-6-amine hydrochloride] gave an IC50 of 60 nM. In the case of `CNCc1cn(S(=O)(=O)c2cccnc2)c2cc(Nc3cccc(Br)c3)ccc12` [Example 5, N-(3-bromophenyl)-3-((methylamino)methyl)-1-(pyridin-3-ylsulfonyl)-1H-indol-6-amine hydrochloride], the IC50 came to 800 nM.

For `CNCc1cn(S(=O)(=O)c2cccnc2)c2cc(Nc3cccc(F)c3)ccc12` [Example 6, N-(3-fluorophenyl)-3-((methylamino)methyl)-1-(pyridin-3-ylsulfonyl)-1H-indol-6-amine hydrochloride], inhibition was half-maximal at 1180 nM (IC50). Compound `CNCc1cn(S(=O)(=O)c2cccnc2)c2cc(Nc3cccc(Cl)c3)ccc12` [Example 7, N-(3-chlorophenyl)-3-((methylamino)methyl)-1-(pyridin-3-ylsulfonyl)-1H-indol-6-amine hydrochloride] returned an IC50 of 590 nM. `CCc1cccc(Nc2ccc3c(CNC)cn(S(=O)(=O)c4cccnc4)c3c2)c1` [Example 8, N-(3-ethylphenyl)-3-((methylamino)methyl)-1-(pyridin-3-ylsulfonyl)-1H-indol-6-amine hydrochloride] returned an IC50 of 170 nM. `CNCc1cn(S(=O)(=O)c2cccnc2)c2cc(Nc3ccc(F)cc3)ccc12` [Example 9, N-(4-fluorophenyl)-3-((methylamino)methyl)-1-(pyridin-3-ylsulfonyl)-1H-indol-6-amine hydrochloride] showed an IC50 of 1050 nM. The figure for `CNCc1cn(S(=O)(=O)c2cccnc2)c2cc(Nc3ccc(C)cc3)ccc12` [Example 10, 3-((methylamino)methyl)-1-(pyridin-3-ylsulfonyl)-N-(p-tolyl)-1H-indol-6-amine hydrochloride] is 200 nM; for `CNCc1cn(S(=O)(=O)c2cccnc2)c2cc(Nc3ccc(Cl)cc3)ccc12` [Example 11, N-(4-chlorophenyl)-3-((methylamino)methyl)-1-(pyridin-3-ylsulfonyl)-1H-indol-6-amine hydrochloride] it is 1020 nM.

Take `CNCc1cn(S(=O)(=O)c2cccnc2)c2cc(Nc3ccc(OC)cc3)ccc12` [Example 12, N-(4-methoxyphenyl)-3-((methylamino)methyl)-1-(pyridin-3-ylsulfonyl)-1H-indol-6-amine hydrochloride]: the IC50 worked out at 420 nM.

In the case of `CNCc1cn(S(=O)(=O)c2cccnc2)c2cc(Nc3ccc(C(F)(F)F)cc3)ccc12` [Example 13, 3-((methylamino)methyl)-1-(pyridin-3-ylsulfonyl)-N-(4-(trifluoromethyl)phenyl)-1H-indol-6-amine hydrochloride], half-maximal inhibition (IC50) required 1080 nM. With `CNCc1cn(S(=O)(=O)c2cccnc2)c2cc(Nc3ccc(C(C)(C)C)cc3)ccc12` [Example 14, N-(4-(tert-butyl)phenyl)-3-((methylamino)methyl)-1-(pyridin-3-ylsulfonyl)-1H-indol-6-amine hydrochloride], the IC50 was 1500 nM.

Compound `CNCc1cn(S(=O)(=O)c2cccnc2)c2cc(Nc3ccc(-c4cccc(OC)c4)cc3)ccc12` [Example 15, N-(3′-methoxy-[1,1′-biphenyl]-4-yl)-3-((methylamino)methyl)-1-(pyridin-3-ylsulfonyl)-1H-indol-6-amine hydrochloride] displayed an IC50 of 1850 nM. The figure for `CNCc1cn(S(=O)(=O)c2cccnc2)c2cc(Nc3cc(-c4ccccc4)ccc3C)ccc12` [Example 16, N-(4-methyl-[1,1′-biphenyl]-3-yl)-3-((methylamino)methyl)-1-(pyridin-3-ylsulfonyl)-1H-indol-6-amine hydrochloride] is 780 nM. In turn, `CNCc1cn(S(=O)(=O)c2cccnc2)c2cc(Nc3ccc(Oc4ccccc4)cc3)ccc12` [Example 17, 3-((methylamino)methyl)-N-(4-phenoxyphenyl)-1-(pyridin-3-ylsulfonyl)-1H-indol-6-amine hydrochloride] came in with an IC50 of 2250 nM. The compound `CNCc1cn(S(=O)(=O)c2cccnc2)c2cc(Nc3ccc(Oc4ccc(F)cc4)cc3)ccc12` [Example 18, N-(4-(4-fluorophenoxy)phenyl)-3-((methylamino)methyl)-1-(pyridin-3-ylsulfonyl)-1H-indol-6-amine hydrochloride] returned an IC50 of 1300 nM. For the compound `CNCc1cn(S(=O)(=O)c2cccnc2)c2cc(Nc3ccc(Oc4ccc(Cl)cc4)cc3)ccc12` [Example 19, N-(4-(4-chlorophenoxy)phenyl)-3-((methylamino)methyl)-1-(pyridin-3-ylsulfonyl)-1H-indol-6-amine hydrochloride], half-maximal inhibition (IC50) was put at 1910 nM. Compound `CNCc1cn(S(=O)(=O)c2cccnc2)c2cc(Nc3cccc(C)c3F)ccc12` [Example 20, N-(2-fluoro-3-methylphenyl)-3-((methylamino)methyl)-1-(pyridin-3-ylsulfonyl)-1H-indol-6-amine hydrochloride] returned a concentration for half-maximal inhibition (IC50) of 380 nM.

`CNCc1cn(S(=O)(=O)c2cccnc2)c2cc(Nc3ccc(C)cc3C)ccc12` [Example 21, N-(2,4-dimethylphenyl)-3-((methylamino)methyl)-1-(pyridin-3-ylsulfonyl)-1H-indol-6-amine hydrochloride] gave an IC50 of 210 nM.

The compound `CNCc1cn(S(=O)(=O)c2cccnc2)c2cc(Nc3ccc(F)cc3C)ccc12` [Example 23, N-(4-fluoro-2-methylphenyl)-3-((methylamino)methyl)-1-(pyridin-3-ylsulfonyl)-1H-indol-6-amine hydrochloride] displayed an IC50 of 220 nM. `CNCc1cn(S(=O)(=O)c2cccnc2)c2cc(Nc3ccc(F)cc3F)ccc12` [Example 24, N-(2,4-difluorophenyl)-3-((methylamino)methyl)-1-(pyridin-3-ylsulfonyl)-1H-indol-6-amine hydrochloride] came in with an IC50 of 560 nM. Regarding `CNCc1cn(S(=O)(=O)c2cccnc2)c2cc(Nc3ccc(F)cc3Cl)ccc12` [Example 25, N-(2-chloro-4-fluorophenyl)-3-((methylamino)methyl)-1-(pyridin-3-ylsulfonyl)-1H-indol-6-amine hydrochloride], the concentration for half-maximal inhibition (IC50) was found to be 160 nM. Turning to `CNCc1cn(S(=O)(=O)c2cccnc2)c2cc(Nc3ccc(F)cc3C(F)(F)F)ccc12` [Example 26, N-(4-fluoro-2-(trifluoromethyl)phenyl)-3-((methylamino)methyl)-1-(pyridin-3-ylsulfonyl)-1H-indol-6-amine hydrochloride], the IC50 worked out at 180 nM. To `CNCc1cn(S(=O)(=O)c2cccnc2)c2cc(Nc3ccc(Cl)cc3C)ccc12` [Example 27, N-(4-chloro-2-methylphenyl)-3-((methylamino)methyl)-1-(pyridin-3-ylsulfonyl)-1H-indol-6-amine hydrochloride] belongs 420 nM; to `CNCc1cn(S(=O)(=O)c2cccnc2)c2cc(Nc3ccc(Cl)cc3C#N)ccc12` [Example 30, 5-chloro-2-((3-((methylamino)methyl)-1-(pyridin-3-ylsulfonyl)-1H-indol-6-yl)amino)benzonitrile hydrochloride], 1140 nM. Regarding `CNCc1cn(S(=O)(=O)c2cccnc2)c2cc(Nc3ccc(C(F)(F)F)cc3C)ccc12` [Example 32, N-(2-methyl-4-(trifluoromethyl)phenyl)-3-((methylamino)methyl)-1-(pyridin-3-ylsulfonyl)-1H-indol-6-amine hydrochloride], it took 810 nM to reach half-maximal inhibition (IC50). Compound `CNCc1cn(S(=O)(=O)c2cccnc2)c2cc(Nc3ccc(C(F)(F)F)cc3F)ccc12` [Example 33, N-(2-fluoro-4-(trifluoromethyl)phenyl)-3-((methylamino)methyl)-1-(pyridin-3-ylsulfonyl)-1H-indol-6-amine hydrochloride] registered an IC50 of 1360 nM. `CNCc1cn(S(=O)(=O)c2cccnc2)c2cc(Nc3ccc(C(F)(F)F)cc3C(F)(F)F)ccc12` [Example 35, N-(2,4-Bis(trifluoromethyl)phenyl)-3-((methylamino)methyl)-1-(pyridin-3-ylsulfonyl)-1H-indol-6-amine hydrochloride] showed an IC50 of 1630 nM.

Consider `CNCc1cn(S(=O)(=O)c2cccnc2)c2cc(Nc3ccc(C#N)cc3C)ccc12` [Example 36, 3-methyl-4-((3-((methylamino)methyl)-1-(pyridin-3-ylsulfonyl)-1H-indol-6-yl)amino)benzonitrile hydrochloride], for which it took 340 nM to reach half-maximal inhibition (IC50).
